Marks after values point to notes of the source that are not given here.
Legend:
[1] = tested on: V8 cell; assay: PARP1 inhibitory activity at cellular level (proliferation inhibition model); settings: read-out: PARP1 inhibitory activity at cellular level (%)
[2] = tested on: U251; assay: Inhibition of tumor cell proliferation, U251; settings: Homo sapiens, U-251
[3] = tested on: U87-MG; assay: Inhibition of tumor cell proliferation, U87-MG; settings: Homo sapiens, U-87 MG
[4] = tested on: Capan-1; assay: Inhibition of tumor cell proliferation, Capan-1; settings: Homo sapiens
[5] = tested on: PC-3; assay: Inhibition of tumor cell proliferation, PC-3; settings: Homo sapiens
[6] = tested on: MDA-MB-436 human breast cancer; assay: Antitumor activity in vivo, subcutaneously transplanted tumor in MDA-MB-436 human breast cancer nude mice; settings: for TV (mean ± SD) d0: d0 (at grouping); for RTV (mean ± SD) / T/C (%) / TV (mean ± SD) d21 / number of animals in which tumor regressed: d21; for number of animals in which tumor regressed: 6 animals
Description: A tumor tissue in vigorous growing period was cut into about 1.5 mm^3, and inoculated subcutaneously into right armpit of nude mice under a sterile condition. The diameter of subcutaneous transplant tumor in nude mice was measured by vernier caliper. When the tumor grew to 100-200 mm^3, the animals were randomly grouped. […] Solvent control group was administered saline in same volume. During the whole experiment, the tumor diameter was measured twice a week, while the body weight of mice was weighed simultaneously. The formula to calculate tumor volume (TV) was TV=½*a*b^2, wherein a and b respectively referred to length and width. Relative tumor volume (RTV) was calculated according to the measurements, and the formula is RTV=Vt/V0, wherein V0 is the tumor volume measured when the mice were grouped (i.e. d0), and Vt is the tumor volume measured each time.

[7] = in vivo; cited from earlier work
[8] = tested on: OVCAR-8; assay: Inhibition of tumor cell proliferation, OVCAR-8; settings: Homo sapiens

Structure (SMILES)	inhibition at 0.0016 µM [1]	inhibition at 0.008 µM [1]	inhibition at 0.04 µM [1]	inhibition at 0.2 µM [1]	inhibition at 1 µM [1]	further results
CC1c2nnc(C(F)(F)F)n2CCN1C(=O)c1cc(Cc2n[nH]c(=O)c3ccccc23)ccc1F (centres unmarked) [Compound S4]	-1.36%	8.66%	53.1%	75.5%	75.7%	–
O=C(c1cc(Cc2n[nH]c(=O)c3ccccc23)ccc1F)N1CCN(C(=O)C2CC2)CC1 [AZD2281, olaparib, reference compound]	–	–	–	–	–	IC50 [2]: 1.19 µM; IC50 [3]: 2.92 µM; IC50 [4]: 0.729 µM; IC50 [5]: 3.92 µM; TV (mean ± SD) d0 ([6]; 100 mg/kg, po, qd × 21): 127 ± 37 mm^3; RTV (mean ± SD) ([6]; 100 mg/kg, po, qd × 21): 0.95 ± 0.78**; T/C (%) ([6]; 100 mg/kg, po, qd × 21): 6.65%; TV (mean ± SD) d21 ([6]; 100 mg/kg, po, qd × 21): 120 ± 118 mm^3; bioavailability [7]: < 15%; half-life time [7]: < 1 h; IC50 [8]: 12.4 µM
CC1c2nnc(C(F)(F)F)n2C(C)CN1C(=O)c1cc(Cc2n[nH]c(=O)c3ccccc23)ccc1F (centres unmarked) [Compound S5]	-5.06%	-3.01%	23.5%	63.8%	73.5%	–
CC1CN(C(=O)c2cc(Cc3n[nH]c(=O)c4ccccc34)ccc2F)Cc2nnc(C(F)F)n21 (centres unmarked) [Compound S17]	4.61%	12.1%	65.6%	76.5%	79.7%	–
CC1CN(C(=O)c2cc(Cc3n[nH]c(=O)c4ccccc34)ccc2F)Cc2nnc(C(F)(F)F)n21 (racemic) [Compound S3]	-3.11%	33.1%	61.2%	70.1%	74.4%	IC50 [3]: 0.228 µM; IC50 [4]: 0.0076 µM; IC50 [5]: 0.995 µM; TV (mean ± SD) d0 ([6]; 25 mg/kg, po, qd × 21): 127 ± 30 mm^3; RTV (mean ± SD) ([6]; 25 mg/kg, po, qd × 21): 1.40 ± 0.71**; T/C (%) ([6]; 25 mg/kg, po, qd × 21): 9.80%; TV (mean ± SD) d21 ([6]; 25 mg/kg, po, qd × 21): 165 ± 57 mm^3; number of animals in which tumor regressed ([6]; 25 mg/kg, po, qd × 21): 3; tumor outcome ([6]; 100 mg/kg): the tumor completely disappeared; side effects ([6]; 100 mg/kg and 25 mg/kg, po, qd × 21): no significant side effects; TV (mean ± SD) d0 ([6]; 100 mg/kg, po, qd × 21): 128 ± 36 mm^3; RTV (mean ± SD) ([6]; 100 mg/kg, po, qd × 21): 0.08 ± 0.04**; T/C (%) ([6]; 100 mg/kg, po, qd × 21): 0.59%; TV (mean ± SD) d21 ([6]; 100 mg/kg, po, qd × 21): 11 ± 7 mm^3; number of animals in which tumor regressed ([6]; 100 mg/kg, po, qd × 21): 1; IC50 [8]: 10.5 µM
CC1CN(C(=O)c2cc(Cc3n[nH]c(=O)c4ccccc34)ccc2F)Cc2nnc(CF)n21 (centres unmarked) [Compound S18]	7.63%	54.1%	77%	77%	78.4%	–
COC1CN(C(=O)c2cc(Cc3n[nH]c(=O)c4ccccc34)ccc2F)Cc2nnc(C(F)(F)F)n21 (centres unmarked) [Compound S10]	11.6%	10.5%	31.8%	67.5%	78.6%	–
CC1c2nnc(CF)n2C(C)CN1C(=O)c1cc(Cc2n[nH]c(=O)c3ccccc23)ccc1F (centres unmarked) [Compound S19]	2.09%	-2.17%	3.32%	0.4%	0.69%	–
